Source: patent US8765721B2, “Composition comprising phosphatidyl serine and an antigen or allergen and the use thereof” (Vaccine Technology Limited, priority 2004, dated 2014)

What was measured:
Type in all cases: in vivo, rat
IgE [1] = test: Ovalbumin-specific IgE ELISA of serum of immunised rats; conditions: pooled group serum
Procedure: (§1) Rats were injected with vaccine compositions comprising the ovalbumin antigen with and without di-oleoyl phosphatidyl serine, lyso-oleoyl phosphatidyl serine or stearoyl(X1)-arachidonoyl(X2) phosphatidyl serine and the concentrations of IgE, IgA and IgG are compared.
(§2) The animals were acclimatised for a period of 5 days prior to dosing. During the acclimatisation period animals were observed twice daily during the working week and once on each day during the weekend to evaluate the health status of the animals. Rats were then allocated to the following dose groups using computer-generated random order numbers.
(§3) On day 0, 20 μg of ovalbumin (OA) in phosphate buffered saline (PBS) with alhydrogel (AHG) adjuvant in a final volume of 0.5 mL was administered.
(§4) On days 21 and 42, 20 μg of ovalbumin (OA) in phosphate buffered saline (PBS) with the relevant test compound in a final volume of 0.5 ml was administered.
(§5) In each case, 0.5 mL of inoculum was injected subcutaneously into the scruff of the neck.
(§6) […] A blood sample was also taken from each animal on Days 15, 22, 29, 36, 43, 50, 57 and 64.
(§7) Serum was prepared by centrifugation of the blood sample at 2,500 rpm for 10 minutes and frozen at −20° C. The samples were then analysed by ELISA to establish the concentration of IgE, IgA and IgG1, IgG2a and IgG2b.
(§8) The purpose of an ELISA is to determine whether a particular protein is present in a sample and then enables quantification of how much is present. By coating the bottom of wells with ovalbumin (OVA) it is possible to bind anti-OVA specific antibodies. To detect only anti-OVA IgA antibodies anti-rat IgA conjugated to HRP was used as a secondary antibody. Quantification of specific antibodies in the rat sera samples was performed using antibody titrations. The data was reported as endpoint titers. Endpoint titers are defined as the last serum dilution giving an optical density value equal to twice the background optical density for the ELISA plate (buffer).

IgA [2] = test: Ovalbumin-specific IgA ELISA of serum of immunised rats; conditions: pooled group serum
Procedure: as §1, §2, §3, §4, §5
On Day 0 a pre-inoculation blood sample was taken. A blood sample was also taken from each animal on Days 15, 22, 29, 36, 43, 50, 57 and 64.
as §7, §8

IgG1 = test: Ovalbumin-specific IgG1 ELISA of serum of immunised rats; conditions: pooled group serum
Procedure: as §1, §2, §3, §4
(§9) In each case, 0.5 mL of inoculum was injected subcutaneously into the scruff of the neck. […]
as §7
as §8, with “To detect only anti-OVA IgA antibodies anti-rat IgA conjugated to HRP was used as a secondary antibody.” left out

IgG2a = test: Ovalbumin-specific IgG2a ELISA of serum of immunised rats; conditions: pooled group serum
Procedure: as §1, §2, §3, §4, §9, §7, §8

IgG2b = test: Ovalbumin-specific IgG2b ELISA of serum of immunised rats; conditions: pooled group serum
Procedure: as §1, §2, §3, §4, §5, §6, §7, §8

IgE [3] = test: Ovalbumin-specific IgE ELISA of serum of immunised rats; conditions: Day 1; 250 ug with 20 μg Ova s.c. on days 21 and 42; pooled group serum
IgA [4] = test: Ovalbumin-specific IgA ELISA of serum of immunised rats; conditions: Day 1; 50 ug with 20 μg Ova s.c. on days 21 and 42; pooled group serum
[5] = Day 1, 50 ug with 20 μg Ova s.c. on days 21 and 42
[6] = Day 15, 50 ug with 20 μg Ova s.c. on days 21 and 42
[7] = Day 15, 250 ug with 20 μg Ova s.c. on days 21 and 42
[8] = Day 22, 50 ug with 20 μg Ova s.c. on days 21 and 42
[9] = Day 22, 250 ug with 20 μg Ova s.c. on days 21 and 42
[10] = Day 29, 50 ug with 20 μg Ova s.c. on days 21 and 42
[11] = Day 29, 250 ug with 20 μg Ova s.c. on days 21 and 42
[12] = Day 36, 50 ug with 20 μg Ova s.c. on days 21 and 42
[13] = Day 36, 250 ug with 20 μg Ova s.c. on days 21 and 42
[14] = Day 43, 50 ug with 20 μg Ova s.c. on days 21 and 42
[15] = Day 43, 250 ug with 20 μg Ova s.c. on days 21 and 42
[16] = Day 50, 50 ug with 20 μg Ova s.c. on days 21 and 42
[17] = Day 50, 250 ug with 20 μg Ova s.c. on days 21 and 42
[18] = Day 57, 50 ug with 20 μg Ova s.c. on days 21 and 42
[19] = Day 57, 250 ug with 20 μg Ova s.c. on days 21 and 42
[20] = Day 64, 50 ug with 20 μg Ova s.c. on days 21 and 42
[21] = Day 64, 250 ug with 20 μg Ova s.c. on days 21 and 42
[22] = Day 1, 250 ug with 20 μg Ova s.c. on days 21 and 42

## CCCCCCCC/C=C\CCCCCCCC(=O)OC[C@@H](O)COP(=O)(O)OC[C@H](N)C(=O)O [VT002, Lyso oleoyl phosphatidyl serine]
IgE [1]; [5]
  IgE endpoint titer: 0
IgE [1]; [6]
  IgE endpoint titer: 0
IgE [1]; [7]
  IgE endpoint titer: 0
IgE [1]; [8]
  IgE endpoint titer: 0
IgE [1]; [9]
  IgE endpoint titer: 0
IgE [1]; [10]
  IgE endpoint titer: 80
IgE [1]; [11]
  IgE endpoint titer: 0
IgE [1]; [12]
  IgE endpoint titer: 40
IgE [1]; [13]
  IgE endpoint titer: 20
IgE [1]; [14]
  IgE endpoint titer: 80
IgE [1]; [15]
  IgE endpoint titer: 40
IgE [1]; [16]
  IgE endpoint titer: 1280
IgE [1]; [17]
  IgE endpoint titer: 640
IgE [1]; [18]
  IgE endpoint titer: 320
IgE [1]; [19]
  IgE endpoint titer: 160
IgE [1]; [20]
  IgE endpoint titer: 160
IgE [1]; [21]
  IgE endpoint titer: 160
IgA [2]; [22]
  IgA endpoint titer: 0
IgA [2]; [6]
  IgA endpoint titer: 0
IgA [2]; [7]
  IgA endpoint titer: 0
IgA [2]; [8]
  IgA endpoint titer: 0
IgA [2]; [9]
  IgA endpoint titer: 0
IgA [2]; [10]
  IgA endpoint titer: 0
IgA [2]; [11]
  IgA endpoint titer: 0
IgA [2]; [12]
  IgA endpoint titer: 160
IgA [2]; [13]
  IgA endpoint titer: 80
IgA [2]; [14]
  IgA endpoint titer: 320
IgA [2]; [15]
  IgA endpoint titer: 160
IgA [2]; [16]
  IgA endpoint titer: 2560
IgA [2]; [17]
  IgA endpoint titer: 1280
IgA [2]; [18]
  IgA endpoint titer: 1280
IgA [2]; [19]
  IgA endpoint titer: 1280
IgA [2]; [20]
  IgA endpoint titer: 2560
IgA [2]; [21]
  IgA endpoint titer: 1280
IgG1; [5]
  IgG1 endpoint titer: 0
IgG1; [22]
  IgG1 endpoint titer: 0
IgG1; [6]
  IgG1 endpoint titer: 320
IgG1; [7]
  IgG1 endpoint titer: 640
IgG1; [8]
  IgG1 endpoint titer: 2560
IgG1; [9]
  IgG1 endpoint titer: 2560
IgG1; [10]
  IgG1 endpoint titer: 10240
IgG1; [11]
  IgG1 endpoint titer: 5120
IgG1; [12]
  IgG1 endpoint titer: 20480
IgG1; [13]
  IgG1 endpoint titer: 20480
IgG1; [14]
  IgG1 endpoint titer: 20480
IgG1; [15]
  IgG1 endpoint titer: 10240
IgG1; [16]
  IgG1 endpoint titer: 40960
IgG1; [17]
  IgG1 endpoint titer: 20480
IgG1; [18]
  IgG1 endpoint titer: 40960
IgG1; [19]
  IgG1 endpoint titer: 40960
IgG1; [20]
  IgG1 endpoint titer: 40960
IgG1; [21]
  IgG1 endpoint titer: 40960
IgG2a; [5]
  IgG2a endpoint titer: 0
IgG2a; [22]
  IgG2a endpoint titer: 0
IgG2a; [6]
  IgG2a endpoint titer: 40
IgG2a; [7]
  IgG2a endpoint titer: 80
IgG2a; [8]
  IgG2a endpoint titer: 1280
IgG2a; [9]
  IgG2a endpoint titer: 640
IgG2a; [10]
  IgG2a endpoint titer: 2560
IgG2a; [11]
  IgG2a endpoint titer: 1280
IgG2a; [12]
  IgG2a endpoint titer: 5120
IgG2a; [13]
  IgG2a endpoint titer: 2560
IgG2a; [14]
  IgG2a endpoint titer: 5120
IgG2a; [15]
  IgG2a endpoint titer: 2560
IgG2a; [16]
  IgG2a endpoint titer: 20480
IgG2a; [17]
  IgG2a endpoint titer: 20480
IgG2a; [18]
  IgG2a endpoint titer: 20480
IgG2a; [19]
  IgG2a endpoint titer: 20480
IgG2a; [20]
  IgG2a endpoint titer: 20480
IgG2a; [21]
  IgG2a endpoint titer: 20480
IgG2b; [5]
  IgG2b endpoint titer: 0
IgG2b; [22]
  IgG2b endpoint titer: 0
IgG2b; [6]
  IgG2b endpoint titer: 0
IgG2b; [7]
  IgG2b endpoint titer: 40
IgG2b; [8]
  IgG2b endpoint titer: 0
IgG2b; [9]
  IgG2b endpoint titer: 80
IgG2b; [10]
  IgG2b endpoint titer: 160
IgG2b; [11]
  IgG2b endpoint titer: 40
IgG2b; [12]
  IgG2b endpoint titer: 320
IgG2b; [13]
  IgG2b endpoint titer: 320
IgG2b; [14]
  IgG2b endpoint titer: 640
IgG2b; [15]
  IgG2b endpoint titer: 640
IgG2b; [16]
  IgG2b endpoint titer: 640
IgG2b; [17]
  IgG2b endpoint titer: 5120
IgG2b; [18]
  IgG2b endpoint titer: 2560
IgG2b; [19]
  IgG2b endpoint titer: 5120
IgG2b; [20]
  IgG2b endpoint titer: 1280
IgG2b; [21]
  IgG2b endpoint titer: 2560
IgE [3]
  IgE endpoint titer: 0
IgA [4]
  IgA endpoint titer: 0
